Measured values reported in PubChem BioAssay (NCI).
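Cells were grown in 96-well plates and exposed to each compound for 48 hours at five concentrations; endpoints were interpolated linearly between bracketing concentrations, or set to the highest concentration if not reached. GI50 = concentration required for 50% inhibition of growth. At the TGI there is no net growth.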

Columns and labels:
Assay in all cases: growth of human tumour cells (NCI), 48 h
SF-295 CNS = system: SF-295 CNS
OVCAR-8 ovarian = system: OVCAR-8 ovarian
DU-145 prostate = system: DU-145 prostate
MALME-3M melanoma = system: MALME-3M melanoma
NCI-H522 lung = system: NCI-H522 lung
SK-MEL-2 melanoma = system: SK-MEL-2 melanoma
U251 CNS = system: U251 CNS
SK-OV-3 ovarian = system: SK-OV-3 ovarian
TK-10 renal = system: TK-10 renal
BT-549 breast = system: BT-549 breast
HCT-116 colon = system: HCT-116 colon
HCC-2998 colon = system: HCC-2998 colon
MDA-MB-231 breast = system: MDA-MB-231 breast
A498 renal = system: A498 renal
MCF7 breast = system: MCF7 breast
UACC-257 melanoma = system: UACC-257 melanoma
K-562 leukemia = system: K-562 leukemia
SK-MEL-5 melanoma = system: SK-MEL-5 melanoma
COLO 205 colon = system: COLO 205 colon
NCI-H23 lung = system: NCI-H23 lung
SW-620 colon = system: SW-620 colon
OVCAR-5 ovarian = system: OVCAR-5 ovarian
NCI-H460 lung = system: NCI-H460 lung
NCI-H226 lung = system: NCI-H226 lung
RPMI-8226 leukemia = system: RPMI-8226 leukemia
SNB-19 CNS = system: SNB-19 CNS
HCT-15 colon = system: HCT-15 colon
HL-60(TB) leukemia = system: HL-60(TB) leukemia

Work on COc1ccc(-c2nnc(SCc3ccc(O)c4ncccc34)n2-c2ccccc2)cc1 yielded a TGI (SF-295 CNS) of 6840 nM, a GI50 (OVCAR-8 ovarian) of 447 nM and a TGI (OVCAR-8 ovarian) of 96900 nM. The GI50 (DU-145 prostate) was 637 nM, the TGI (DU-145 prostate) was over 53500 nM and the GI50 (MALME-3M melanoma) was 968 nM. It also gave a TGI (MALME-3M melanoma) of 5210 nM, a GI50 (NCI-H522 lung) of 479 nM and a TGI (NCI-H522 lung) of 11100 nM. It also gave a GI50 (SK-MEL-2 melanoma) of 1160 nM, a TGI (SK-MEL-2 melanoma) of 6710 nM and a GI50 (U251 CNS) of 389 nM. The TGI (U251 CNS) was 13800 nM, the GI50 (SK-OV-3 ovarian) was 745 nM and the TGI (SK-OV-3 ovarian) was 9230 nM. The GI50 (TK-10 renal) was 870 nM, the TGI (TK-10 renal) was 7510 nM and the GI50 (BT-549 breast) was 572 nM. It also gave a TGI (BT-549 breast) of 17000 nM, a GI50 (HCT-116 colon) of 361 nM and a TGI (HCT-116 colon) of 5400 nM. It also gave a GI50 (HCC-2998 colon) of 1190 nM, a TGI (HCC-2998 colon) of over 100000 nM and a GI50 (MDA-MB-231 breast) of 922 nM. It also gave a TGI (MDA-MB-231 breast) of 26700 nM, a GI50 (A498 renal) of 2230 nM and a TGI (A498 renal) of 12500 nM. It also gave a GI50 (MCF7 breast) of 395 nM, a TGI (MCF7 breast) of over 100000 nM and a GI50 (UACC-257 melanoma) of 1020 nM. It also gave a TGI (UACC-257 melanoma) of 10700 nM, a GI50 (K-562 leukemia) of 370 nM and a TGI (K-562 leukemia) of over 100000 nM. It also gave a GI50 (SK-MEL-5 melanoma) of 720 nM, a TGI (SK-MEL-5 melanoma) of 3560 nM and a GI50 (COLO 205 colon) of 6710 nM. The TGI (COLO 205 colon) was over 100000 nM, the GI50 (NCI-H23 lung) was 661 nM and the TGI (NCI-H23 lung) was 30400 nM. The GI50 (SW-620 colon) was 438 nM, the TGI (SW-620 colon) was over 100000 nM and the GI50 (OVCAR-5 ovarian) was 3960 nM. The TGI (OVCAR-5 ovarian) was over 100000 nM, the GI50 (NCI-H460 lung) was 385 nM and the TGI (NCI-H460 lung) was 3310 nM. It also gave a GI50 (NCI-H226 lung) of 2460 nM, a TGI (NCI-H226 lung) of 98000 nM and a GI50 (RPMI-8226 leukemia) of 493 nM. For the same compound, the TGI (RPMI-8226 leukemia) was over 100000 nM, the GI50 (SNB-19 CNS) was 553 nM and the TGI (SNB-19 CNS) was over 40900 nM. For the same compound, the GI50 (HCT-15 colon) was 328 nM, the TGI (HCT-15 colon) was over 100000 nM and the GI50 (HL-60(TB) leukemia) was 397 nM. The TGI (HL-60(TB) leukemia) was 3410 nM.
